Measurements taken from article PMC5224920, “Assessing the mechanism and therapeutic potential of modulators of the human Mediator complex-associated protein kinases” (eLife, 2016).

Tested on: 12 single or co-culture in vitro tissue models of primary cells
Assay: Culture/co-culture cell model panel, extracellular biomarkers (DiscoveRx); on CCL2/MCP-1: reference of the scale not given here; on CD141/Thrombomodulin: reference of the scale not given here; on CD142/Tissue Factor: reference of the scale not given here; on CD38: reference of the scale not given here; on CD40: reference of the scale not given here; on CD69: reference of the scale not given here; on CXCL8/IL-8: reference of the scale not given here; on CXCL9/MIG: reference of the scale not given here; on IL-1alpha: reference of the scale not given here; on M-CSF: reference of the scale not given here; on PBMC Cytotoxicity: reference of the scale not given here; on SRB: reference of the scale not given here; on sPGE2: reference of the scale not given here; on sTNF-alpha: reference of the scale not given here
Format: cell-based, human
[1] = HDF3CGF stimulated fibroblasts, 1.00E3 nM
[2] = HDF3CGF stimulated fibroblasts, 1.00E4 nM
[3] = HPNo Huvec+PBMC unstimulated, 1.00E0 nM
[4] = HPNo Huvec+PBMC unstimulated, 1.00E1 nM
[5] = HPNo Huvec+PBMC unstimulated, 1.00E2 nM
[6] = HPNo Huvec+PBMC unstimulated, 1.00E3 nM
[7] = HPNo Huvec+PBMC unstimulated, 1.00E4 nM

Cn1ncc2cc(-c3cnc(N)c(Cl)c3N3CCC4(CCNC4=O)CC3)ccc21 [CMPD 3]
EGFR [1]: -0.071 | M-CSF [1]: -0.083 | MMP-1 [1]: 0.021 | PAI-I [1]: -0.046 | Proliferation_72hr [1]: -0.287 | SRB [1]: -0.024 | TIMP-1 [1]: -0.058 | TIMP-2 [1]: 0.170 | CCL2/MCP-1 [2]: -0.120 | CD54/ICAM-1 [2]: -0.048 | CD106/VCAM-1 [2]: 0.030 | CXCL8/IL-8 [2]: -0.092 | CXCL9/MIG [2]: -0.077 | CXCL10/IP-10 [2]: 0.009 | CXCL11/I-TAC [2]: -0.045 | Collagen I [2]: 0.097 | Collagen III [2]: 0.0018 | EGFR [2]: 0.023 | M-CSF [2]: -0.150 | MMP-1 [2]: 0.056 | PAI-I [2]: -0.210 | Proliferation_72hr [2]: -0.515 | SRB [2]: -0.209 | TIMP-1 [2]: -0.045 | TIMP-2 [2]: 0.276 | CCL2/MCP-1 [3]: 0.009 | CD38 [3]: 0.004 | CD40 [3]: -0.028 | CD106/VCAM-1 [3]: 0.042 | CD141/Thrombomodulin [3]: 0.010 | CD142/Tissue Factor [3]: 0.089 | CCL2/MCP-1 [4]: 0.017 | CD38 [4]: -0.049 | CD40 [4]: -0.059 | CD106/VCAM-1 [4]: 0.134 | CD141/Thrombomodulin [4]: -0.016 | CD142/Tissue Factor [4]: 0.039 | CCL2/MCP-1 [5]: 0.001 | CD38 [5]: -0.011 | CD40 [5]: -0.067 | CD106/VCAM-1 [5]: 0.206 | CD141/Thrombomodulin [5]: 0.008 | CD142/Tissue Factor [5]: 0.039 | CCL2/MCP-1 [6]: -0.049 | CD38 [6]: -0.041 | CD40 [6]: -0.024 | CD106/VCAM-1 [6]: 0.098 | CD141/Thrombomodulin [6]: 0.007 | CD142/Tissue Factor [6]: 0.007 | CCL2/MCP-1 [7]: -0.004 | CD38 [7]: -0.070 | CD40 [7]: -0.022 | CD106/VCAM-1 [7]: 0.069 | CD141/Thrombomodulin [7]: 0.032 | CD142/Tissue Factor [7]: -0.024 | CD69 (HPNo, 1.00E0 nM): -0.011 | CXCL8/IL-8 (HPNo, 1.00E0 nM): 0.034 | CXCL9/MIG (HPNo, 1.00E0 nM): 0.060 | M-CSF (HPNo, 1.00E0 nM): 0.037 | SRB (HPNo, 1.00E0 nM): -0.058 | sPGE2 (HPNo, 1.00E0 nM): 0.025 | sTNF-alpha (HPNo, 1.00E0 nM): 0.138 | CD69 (HPNo, 1.00E1 nM): -0.011 | CXCL8/IL-8 (HPNo, 1.00E1 nM): 0.00458 | CXCL9/MIG (HPNo, 1.00E1 nM): 0.092 | M-CSF (HPNo, 1.00E1 nM): 0.011 | SRB (HPNo, 1.00E1 nM): -0.00131 | sPGE2 (HPNo, 1.00E1 nM): 0.022 | sTNF-alpha (HPNo, 1.00E1 nM): 0.068 | CD69 (HPNo, 1.00E2 nM): 0.017 | CXCL8/IL-8 (HPNo, 1.00E2 nM): -0.00647 | CXCL9/MIG (HPNo, 1.00E2 nM): 0.045 | M-CSF (HPNo, 1.00E2 nM): -0.043 | SRB (HPNo, 1.00E2 nM): 0.006 | sPGE2 (HPNo, 1.00E2 nM): 0.139 | sTNF-alpha (HPNo, 1.00E2 nM): 0.492 | CD69 (HPNo, 1.00E3 nM): -0.017 | CXCL8/IL-8 (HPNo, 1.00E3 nM): -0.012 | CXCL9/MIG (HPNo, 1.00E3 nM): 0.014 | M-CSF (HPNo, 1.00E3 nM): -0.056 | SRB (HPNo, 1.00E3 nM): 0.008 | sPGE2 (HPNo, 1.00E3 nM): 0.056 | sTNF-alpha (HPNo, 1.00E3 nM): -0.00633 | CD69 (HPNo, 1.00E4 nM): 0.004 | CXCL8/IL-8 (HPNo, 1.00E4 nM): -0.002 | CXCL9/MIG (HPNo, 1.00E4 nM): -0.052 | M-CSF (HPNo, 1.00E4 nM): -0.079 | SRB (HPNo, 1.00E4 nM): -0.058 | sPGE2 (HPNo, 1.00E4 nM): 0.016 | sTNF-alpha (HPNo, 1.00E4 nM): 0.025 | CCL2/MCP-1 (LPS Huvec+PBMC, 1.00E0 nM): 0.009 | CD40 (LPS Huvec+PBMC, 1.00E0 nM): -0.011 | CD69 (LPS Huvec+PBMC, 1.00E0 nM): 0.028 | CD106/VCAM-1 (LPS Huvec+PBMC, 1.00E0 nM): 0.028 | CD141/Thrombomodulin (LPS Huvec+PBMC, 1.00E0 nM): 0.019 | CD142/Tissue Factor (LPS Huvec+PBMC, 1.00E0 nM): 0.057 | CXCL8/IL-8 (LPS Huvec+PBMC, 1.00E0 nM): 0.020 | IL-1alpha (LPS Huvec+PBMC, 1.00E0 nM): 0.064 | M-CSF (LPS Huvec+PBMC, 1.00E0 nM): 0.051 | SRB (LPS Huvec+PBMC, 1.00E0 nM): -0.018 | sPGE2 (LPS Huvec+PBMC, 1.00E0 nM): 0.033 | sTNF-alpha (LPS Huvec+PBMC, 1.00E0 nM): 0.017 | CCL2/MCP-1 (LPS Huvec+PBMC, 1.00E1 nM): -0.00212 | CD40 (LPS Huvec+PBMC, 1.00E1 nM): -0.078 | CD69 (LPS Huvec+PBMC, 1.00E1 nM): -0.00157 | CD106/VCAM-1 (LPS Huvec+PBMC, 1.00E1 nM): 0.056 | CD141/Thrombomodulin (LPS Huvec+PBMC, 1.00E1 nM): 0.042 | CD142/Tissue Factor (LPS Huvec+PBMC, 1.00E1 nM): 0.050 | CXCL8/IL-8 (LPS Huvec+PBMC, 1.00E1 nM): -0.028 | IL-1alpha (LPS Huvec+PBMC, 1.00E1 nM): -0.012 | M-CSF (LPS Huvec+PBMC, 1.00E1 nM): -0.018 | SRB (LPS Huvec+PBMC, 1.00E1 nM): -0.053 | sPGE2 (LPS Huvec+PBMC, 1.00E1 nM): 0.128 | sTNF-alpha (LPS Huvec+PBMC, 1.00E1 nM): 0.024 | CCL2/MCP-1 (LPS Huvec+PBMC, 1.00E2 nM): -0.069 | CD40 (LPS Huvec+PBMC, 1.00E2 nM): -0.092 | CD69 (LPS Huvec+PBMC, 1.00E2 nM): 0.048 | CD106/VCAM-1 (LPS Huvec+PBMC, 1.00E2 nM): 0.047 | CD141/Thrombomodulin (LPS Huvec+PBMC, 1.00E2 nM): 0.046 | CD142/Tissue Factor (LPS Huvec+PBMC, 1.00E2 nM): 0.071 | CXCL8/IL-8 (LPS Huvec+PBMC, 1.00E2 nM): -0.091 | IL-1alpha (LPS Huvec+PBMC, 1.00E2 nM): -0.007 | M-CSF (LPS Huvec+PBMC, 1.00E2 nM): -0.020 | SRB (LPS Huvec+PBMC, 1.00E2 nM): -0.076 | sPGE2 (LPS Huvec+PBMC, 1.00E2 nM): 0.096 | sTNF-alpha (LPS Huvec+PBMC, 1.00E2 nM): 0.028 | CCL2/MCP-1 (LPS Huvec+PBMC, 1.00E3 nM): -0.112 | CD40 (LPS Huvec+PBMC, 1.00E3 nM): -0.089 | CD69 (LPS Huvec+PBMC, 1.00E3 nM): 0.015 | CD106/VCAM-1 (LPS Huvec+PBMC, 1.00E3 nM): 0.022 | CD141/Thrombomodulin (LPS Huvec+PBMC, 1.00E3 nM): 0.052 | CD142/Tissue Factor (LPS Huvec+PBMC, 1.00E3 nM): 0.071 | CXCL8/IL-8 (LPS Huvec+PBMC, 1.00E3 nM): -0.169 | IL-1alpha (LPS Huvec+PBMC, 1.00E3 nM): -0.064 | M-CSF (LPS Huvec+PBMC, 1.00E3 nM): -0.008 | SRB (LPS Huvec+PBMC, 1.00E3 nM): -0.082 | sPGE2 (LPS Huvec+PBMC, 1.00E3 nM): 0.040 | sTNF-alpha (LPS Huvec+PBMC, 1.00E3 nM): -0.030 | CCL2/MCP-1 (LPS Huvec+PBMC, 1.00E4 nM): -0.187 | CD40 (LPS Huvec+PBMC, 1.00E4 nM): -0.133 | CD69 (LPS Huvec+PBMC, 1.00E4 nM): -0.043 | CD106/VCAM-1 (LPS Huvec+PBMC, 1.00E4 nM): 0.00362 | CD141/Thrombomodulin (LPS Huvec+PBMC, 1.00E4 nM): 0.038 | CD142/Tissue Factor (LPS Huvec+PBMC, 1.00E4 nM): 0.121 | CXCL8/IL-8 (LPS Huvec+PBMC, 1.00E4 nM): -0.222 | IL-1alpha (LPS Huvec+PBMC, 1.00E4 nM): -0.226 | M-CSF (LPS Huvec+PBMC, 1.00E4 nM): -0.022 | SRB (LPS Huvec+PBMC, 1.00E4 nM): -0.142 | sPGE2 (LPS Huvec+PBMC, 1.00E4 nM): 0.008 | sTNF-alpha (LPS Huvec+PBMC, 1.00E4 nM): -0.328 | CCL2/MCP-1 (SAg, 1.00E0 nM): 0.030 | CD38 (SAg, 1.00E0 nM): 0.023 | CD40 (SAg, 1.00E0 nM): -0.041 | CD69 (SAg, 1.00E0 nM): 0.00162 | CXCL8/IL-8 (SAg, 1.00E0 nM): 0.064 | CXCL9/MIG (SAg, 1.00E0 nM): 0.013 | PBMC Cytotoxicity (SAg, 1.00E0 nM): 0.039 | Proliferation (SAg, 1.00E0 nM): 0.019 | SRB (SAg, 1.00E0 nM): -0.013 | CCL2/MCP-1 (SAg, 1.00E1 nM): -0.016 | CD38 (SAg, 1.00E1 nM): -0.043 | CD40 (SAg, 1.00E1 nM): -0.128 | CD69 (SAg, 1.00E1 nM): 0.037 | CXCL8/IL-8 (SAg, 1.00E1 nM): -0.047 | CXCL9/MIG (SAg, 1.00E1 nM): -0.015 | PBMC Cytotoxicity (SAg, 1.00E1 nM): 0.014 | Proliferation (SAg, 1.00E1 nM): 0.030 | SRB (SAg, 1.00E1 nM): -0.033 | CCL2/MCP-1 (SAg, 1.00E2 nM): -0.038 | CD38 (SAg, 1.00E2 nM): -0.050 | CD40 (SAg, 1.00E2 nM): -0.143 | CD69 (SAg, 1.00E2 nM): 0.053 | CXCL8/IL-8 (SAg, 1.00E2 nM): -0.167 | CXCL9/MIG (SAg, 1.00E2 nM): -0.040 | PBMC Cytotoxicity (SAg, 1.00E2 nM): 0.014 | Proliferation (SAg, 1.00E2 nM): 0.018 | SRB (SAg, 1.00E2 nM): -0.052 | CCL2/MCP-1 (SAg, 1.00E3 nM): -0.092 | CD38 (SAg, 1.00E3 nM): -0.050 | CD40 (SAg, 1.00E3 nM): -0.108 | CD69 (SAg, 1.00E3 nM): 0.059 | CXCL8/IL-8 (SAg, 1.00E3 nM): -0.271 | CXCL9/MIG (SAg, 1.00E3 nM): -0.072 | PBMC Cytotoxicity (SAg, 1.00E3 nM): -0.014 | Proliferation (SAg, 1.00E3 nM): 0.007 | SRB (SAg, 1.00E3 nM): -0.055 | CCL2/MCP-1 (SAg, 1.00E4 nM): -0.171 | CD38 (SAg, 1.00E4 nM): -0.109 | CD40 (SAg, 1.00E4 nM): -0.222 | CD69 (SAg, 1.00E4 nM): -0.076 | CXCL8/IL-8 (SAg, 1.00E4 nM): -0.221 | CXCL9/MIG (SAg, 1.00E4 nM): -0.086 | PBMC Cytotoxicity (SAg, 1.00E4 nM): -0.027 | Proliferation (SAg, 1.00E4 nM): -0.217 | SRB (SAg, 1.00E4 nM): -0.150
